Measurements reported in PubChem BioAssay (NCI).
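Five concentrations, 48 hours, 96-well plates. GI50 marks 50% less growth. TGI denotes the concentration required for complete inhibition of growth.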

How the values were obtained:
Experiment in all cases: DTP human tumour cell line panel, 48 h
[1] = tested on: NCI/ADR-RES ovarian
[2] = tested on: OVCAR-3 ovarian
[3] = tested on: NCI-H522 lung
[4] = tested on: RPMI-8226 leukemia
[5] = tested on: NCI-H226 lung
[6] = tested on: MDA-MB-435
[7] = tested on: UACC-257 melanoma
[8] = tested on: PC-3 prostate
[9] = tested on: SNB-75 CNS
[10] = tested on: IGROV1 ovarian
[11] = tested on: MDA-MB-231 breast
[12] = tested on: HS 578T breast
[13] = tested on: SK-OV-3 ovarian
[14] = tested on: RXF 393 renal
[15] = tested on: MCF7 breast
[16] = tested on: SF-295 CNS
[17] = tested on: HL-60(TB) leukemia
[18] = tested on: SW-620 colon
[19] = tested on: SR leukemia
[20] = tested on: MALME-3M melanoma
[21] = tested on: COLO 205 colon
[22] = tested on: HCT-116 colon
[23] = tested on: LOX IMVI melanoma
[24] = tested on: CCRF-CEM leukemia
[25] = tested on: SF-268 CNS
[26] = tested on: T-47D breast
[27] = tested on: SK-MEL-2 melanoma
[28] = tested on: SN12C renal
[29] = tested on: MOLT-4 leukemia
[30] = tested on: HCT-15 colon
[31] = tested on: OVCAR-5 ovarian
[32] = tested on: EKVX NSCLC
[33] = tested on: 786-0 renal
[34] = tested on: HT29 colon
[35] = tested on: BT-549 breast
[36] = tested on: NCI-H23 lung
[37] = tested on: NCI-H460 lung
[38] = tested on: KM12 colon
[39] = tested on: TK-10 renal
[40] = tested on: HOP-92 NSCLC
[41] = tested on: SK-MEL-28 melanoma
[42] = tested on: U251 CNS
[43] = tested on: K-562 leukemia
[44] = tested on: HCC-2998 colon
[45] = tested on: M14 melanoma
[46] = tested on: HOP-62 NSCLC
[47] = tested on: ACHN renal
[48] = tested on: CAKI-1 renal
[49] = tested on: DU-145 prostate
[50] = tested on: UACC-62 melanoma
[51] = tested on: OVCAR-4 ovarian
[52] = tested on: A498 renal
[53] = tested on: A549 NSCLC
[54] = tested on: OVCAR-8 ovarian
[55] = tested on: SNB-19 CNS
[56] = tested on: UO-31 renal

Question: How did the GI50 [1] turn out when `COc1ccc(CNS(=O)(=O)/N=C2\NC(=O)NC2=C(Cl)Cl)cc1` was run?
Answer: Its GI50 is 2.93 µM.

Question: What about the TGI [1] of the same molecule?
Answer: The TGI was > 100 µM.

Question: What about the GI50 [2] of the same molecule?
Answer: Its GI50 is 1.59 µM.

Question: What about the TGI [2] of the same molecule?
Answer: Its TGI is 17.5 µM.

Question: What about the GI50 [3] of the same molecule?
Answer: Its GI50 is 2.07 µM.

Question: And the TGI [3]?
Answer: The TGI was 14.2 µM.

Question: What about the GI50 [4] of the same molecule?
Answer: Its GI50 is 0.352 µM.

Question: What about the TGI [4] of the same molecule?
Answer: The TGI was 5.21 µM.

Question: What about the GI50 [5] of the same molecule?
Answer: The GI50 was 2.03 µM.

Question: And the TGI [5]?
Answer: The TGI was 5.51 µM.

Question: And the GI50 [6]?
Answer: The GI50 was 1.36 µM.

Question: What about the TGI [6] of the same molecule?
Answer: The TGI was 4.33 µM.

Question: What about the GI50 [7] of the same molecule?
Answer: Its GI50 is 10.7 µM.

Question: And the TGI [7]?
Answer: The TGI was 68.6 µM.

Question: And the GI50 [8]?
Answer: Its GI50 is 2.61 µM.

Question: And the TGI [8]?
Answer: The TGI was > 100 µM.

Question: What about the GI50 [9] of the same molecule?
Answer: The GI50 was 1.34 µM.

Question: And the TGI [9]?
Answer: The TGI was > 100 µM.

Question: What about the GI50 [10] of the same molecule?
Answer: The GI50 was 3.3 µM.

Question: And the TGI [10]?
Answer: Its TGI is 22 µM.

Question: What about the GI50 [11] of the same molecule?
Answer: Its GI50 is 1.92 µM.

Question: What about the TGI [11] of the same molecule?
Answer: Its TGI is 8.31 µM.

Question: And the GI50 [12]?
Answer: Its GI50 is 2.09 µM.

Question: And the TGI [12]?
Answer: The TGI was > 100 µM.

Question: And the GI50 [13]?
Answer: Its GI50 is 8.22 µM.

Question: What about the TGI [13] of the same molecule?
Answer: Its TGI is > 100 µM.

Question: What about the GI50 [14] of the same molecule?
Answer: The GI50 was 1.71 µM.

Question: And the TGI [14]?
Answer: Its TGI is 6.79 µM.

Question: And the GI50 [15]?
Answer: The GI50 was 0.348 µM.

Question: And the TGI [15]?
Answer: The TGI was > 100 µM.

Question: What about the GI50 [16] of the same molecule?
Answer: The GI50 was 2.85 µM.

Question: What about the TGI [16] of the same molecule?
Answer: Its TGI is > 100 µM.

Question: And the GI50 [17]?
Answer: The GI50 was 0.756 µM.

Question: What about the TGI [17] of the same molecule?
Answer: The TGI was 5.64 µM.

Question: What about the GI50 [18] of the same molecule?
Answer: The GI50 was 2.45 µM.

Question: What about the TGI [18] of the same molecule?
Answer: Its TGI is 16.6 µM.

Question: And the GI50 [19]?
Answer: Its GI50 is 2.86 µM.

Question: What about the TGI [19] of the same molecule?
Answer: Its TGI is 22.8 µM.

Question: What about the GI50 [20] of the same molecule?
Answer: Its GI50 is 5.62 µM.

Question: What about the TGI [20] of the same molecule?
Answer: Its TGI is 22.7 µM.

Question: What about the GI50 [21] of the same molecule?
Answer: Its GI50 is 2.21 µM.

Question: What about the TGI [21] of the same molecule?
Answer: Its TGI is 5.1 µM.

Question: What about the GI50 [22] of the same molecule?
Answer: The GI50 was 0.531 µM.

Question: What about the TGI [22] of the same molecule?
Answer: Its TGI is > 100 µM.

Question: And the GI50 [23]?
Answer: The GI50 was 0.386 µM.

Question: What about the TGI [23] of the same molecule?
Answer: The TGI was 10.8 µM.

Question: And the GI50 [24]?
Answer: Its GI50 is 0.364 µM.

Question: What about the TGI [24] of the same molecule?
Answer: Its TGI is 16.2 µM.

Question: What about the GI50 [25] of the same molecule?
Answer: The GI50 was 0.541 µM.

Question: And the TGI [25]?
Answer: Its TGI is > 100 µM.

Question: And the GI50 [26]?
Answer: Its GI50 is 2.4 µM.

Question: And the TGI [26]?
Answer: Its TGI is > 100 µM.

Question: What about the GI50 [27] of the same molecule?
Answer: Its GI50 is 6.27 µM.

Question: And the TGI [27]?
Answer: Its TGI is 42.8 µM.

Question: What about the GI50 [28] of the same molecule?
Answer: Its GI50 is 0.811 µM.

Question: What about the TGI [28] of the same molecule?
Answer: Its TGI is > 100 µM.

Question: And the GI50 [29]?
Answer: Its GI50 is 0.435 µM.

Question: What about the TGI [29] of the same molecule?
Answer: Its TGI is 59.2 µM.

Question: And the GI50 [30]?
Answer: Its GI50 is 3.19 µM.

Question: And the TGI [30]?
Answer: Its TGI is 11.6 µM.

Question: And the GI50 [31]?
Answer: The GI50 was 3.23 µM.

Question: And the TGI [31]?
Answer: The TGI was > 100 µM.

Question: What about the GI50 [32] of the same molecule?
Answer: The GI50 was 4.39 µM.

Question: And the TGI [32]?
Answer: Its TGI is > 100 µM.

Question: What about the GI50 [33] of the same molecule?
Answer: Its GI50 is 1.88 µM.

Question: And the TGI [33]?
Answer: Its TGI is > 100 µM.

Question: And the GI50 [34]?
Answer: Its GI50 is 1.67 µM.

Question: And the TGI [34]?
Answer: Its TGI is > 100 µM.

Question: And the GI50 [35]?
Answer: The GI50 was 0.981 µM.

Question: What about the TGI [35] of the same molecule?
Answer: The TGI was 12.2 µM.

Question: And the GI50 [36]?
Answer: The GI50 was 3.8 µM.

Question: And the TGI [36]?
Answer: Its TGI is 17.7 µM.

Question: What about the GI50 [37] of the same molecule?
Answer: The GI50 was 2.82 µM.

Question: What about the TGI [37] of the same molecule?
Answer: Its TGI is > 100 µM.

Question: What about the GI50 [38] of the same molecule?
Answer: Its GI50 is 0.327 µM.

Question: And the TGI [38]?
Answer: The TGI was > 100 µM.

Question: And the GI50 [39]?
Answer: Its GI50 is 6.55 µM.

Question: What about the TGI [39] of the same molecule?
Answer: Its TGI is > 100 µM.

Question: And the GI50 [40]?
Answer: The GI50 was 0.48 µM.

Question: And the TGI [40]?
Answer: The TGI was 10.4 µM.

Question: And the GI50 [41]?
Answer: The GI50 was 8.08 µM.

Question: What about the TGI [41] of the same molecule?
Answer: Its TGI is 22 µM.

Question: What about the GI50 [42] of the same molecule?
Answer: Its GI50 is 1.7 µM.

Question: And the TGI [42]?
Answer: Its TGI is 14.6 µM.

Question: And the GI50 [43]?
Answer: The GI50 was 1.64 µM.

Question: What about the TGI [43] of the same molecule?
Answer: The TGI was > 100 µM.

Question: What about the GI50 [44] of the same molecule?
Answer: The GI50 was 3.2 µM.

Question: What about the TGI [44] of the same molecule?
Answer: Its TGI is 10.4 µM.

Question: What about the GI50 [45] of the same molecule?
Answer: The GI50 was 3.02 µM.

Question: What about the TGI [45] of the same molecule?
Answer: The TGI was > 100 µM.

Question: And the GI50 [46]?
Answer: Its GI50 is 0.621 µM.

Question: What about the TGI [46] of the same molecule?
Answer: Its TGI is > 100 µM.

Question: What about the GI50 [47] of the same molecule?
Answer: Its GI50 is 3.59 µM.

Question: And the TGI [47]?
Answer: Its TGI is > 100 µM.

Question: And the GI50 [48]?
Answer: Its GI50 is 3.05 µM.

Question: What about the TGI [48] of the same molecule?
Answer: The TGI was 73.3 µM.

Question: What about the GI50 [49] of the same molecule?
Answer: The GI50 was 3.22 µM.

Question: What about the TGI [49] of the same molecule?
Answer: The TGI was > 100 µM.

Question: What about the GI50 [50] of the same molecule?
Answer: Its GI50 is 2.89 µM.

Question: And the TGI [50]?
Answer: Its TGI is 18.2 µM.

Question: What about the GI50 [51] of the same molecule?
Answer: Its GI50 is 4.47 µM.

Question: And the TGI [51]?
Answer: Its TGI is > 100 µM.

Question: And the GI50 [52]?
Answer: The GI50 was 1.22 µM.

Question: And the TGI [52]?
Answer: The TGI was 5.39 µM.

Question: And the GI50 [53]?
Answer: The GI50 was 3.48 µM.

Question: And the TGI [53]?
Answer: The TGI was > 100 µM.

Question: What about the GI50 [54] of the same molecule?
Answer: Its GI50 is 3.38 µM.

Question: And the TGI [54]?
Answer: Its TGI is > 100 µM.

Question: What about the GI50 [55] of the same molecule?
Answer: The GI50 was 1.14 µM.

Question: And the TGI [55]?
Answer: The TGI was > 100 µM.

Question: What about the GI50 [56] of the same molecule?
Answer: The GI50 was 5.13 µM.

Question: What about the TGI [56] of the same molecule?
Answer: The TGI was > 100 µM.
